For test [1], the target named is T1, PBP3 from Escherichia coli (Escherichia coli, UniProt P0AD68).
T1 construct: made in house
In words: Fluorescence polarization competition binding assay with Bocillin-FL. The gist of the method:
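Fluorescence polarization competition assay with Bocillin-FL at 0.1 μM final and purified E. coli PBP3 at 1.5 μM final in 50 mM Hepes pH 8.0, 300 mM NaCl, 5% glycerol. Inhibitor preincubated with PBP3 for 30 min before probe addition; FP then read continuously for 60 min. Potency reported in binned categories.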
(Fluorescence polarisation rises when a labelled molecule tumbles more slowly, as on binding a larger partner.)

Test [2] concerns the target T1, PBP3 from Escherichia coli. Kind of test: Competition binding assay using Bodipy-FL boronic acid probe (Example 95). The note with it: PBP3 3 μM, read-out: E. coli K12 PBP3 Potency. How it is done:
PBP3 from Escherichia coli was cloned and purified as described previously (King, D. T, et al., ACS Infectious Diseases 2015, 1, 175-184). To establish assay conditions for competition binding, an enzyme titration/saturation binding experiment was performed. […] FP was measured immediately upon addition of PBP3 (Ex, Em), using a Cytation3 (BioTek) microplate reader and measured continuously for 60 minutes. […] The competition binding assay was validated using the beta-lactam ampicillin, with Bocillin-FL at a final concentration of 0.1 μM, PBP3 at a final concentration of 1.5 μM and concentrations of ampicillin from 0-1000 μM. […] Binding assays for boronic acid PBP inhibitors were performed in an identical fashion. Representative results are shown in Table 3, where A represents a potency of >500 μM, B represents a potency between 30 μM and 500 μM inclusive, and C represents a potency of <30 μM. NT=Not Tested.
The method described in Example II was adapted to use a Bodipy-labeled boronic acid PBP inhibitor (Example 13 or Example 95) to assess PBP3 potency of boronic acid PBP inhibitors. The method is identical to that described in Example II for the Bocillin-FL competition binding assay, with the following exceptions: PBP3 from Escherichia coli is used at a final concentration of 3 μM. […]

In test [3] the test system is hyper-permeable E. coli 901C. Kind of test: Broth microdilution MIC assay. The note with it: Escherichia coli, read-out: E. coli 901C MIC. Format: cell-based. The gist of the method:
(§1)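 CLSI broth microdilution in cation-supplemented Mueller-Hinton broth; 2-fold serial compound dilutions inoculated at 5×10^5 CFU/mL from 3-5 h log-phase cultures. Plates incubated 16-20 hours at 37° C. MIC read visually as lowest concentration with no bacterial growth.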
For orientation: Broth dilution looks for growth in wells or tubes with falling amounts of substance.

Test [4] deals with S. aureus ATCC 29213. Kind of test: Broth microdilution MIC assay. Type of test: cell-based. To be noted: Staphylococcus aureus, ATCC29213; broth microdilution, 16-20 hours at 37° C.; read-out: S. aureus 29213 MIC. The gist of the method: as §1

The text below walks through data of patent publication US11332485B2, “Penicillin-binding protein inhibitors” (priority 2017, dated 2022).

Bounds are passed on as bounds.

T1 sequence (P0AD68 1-577): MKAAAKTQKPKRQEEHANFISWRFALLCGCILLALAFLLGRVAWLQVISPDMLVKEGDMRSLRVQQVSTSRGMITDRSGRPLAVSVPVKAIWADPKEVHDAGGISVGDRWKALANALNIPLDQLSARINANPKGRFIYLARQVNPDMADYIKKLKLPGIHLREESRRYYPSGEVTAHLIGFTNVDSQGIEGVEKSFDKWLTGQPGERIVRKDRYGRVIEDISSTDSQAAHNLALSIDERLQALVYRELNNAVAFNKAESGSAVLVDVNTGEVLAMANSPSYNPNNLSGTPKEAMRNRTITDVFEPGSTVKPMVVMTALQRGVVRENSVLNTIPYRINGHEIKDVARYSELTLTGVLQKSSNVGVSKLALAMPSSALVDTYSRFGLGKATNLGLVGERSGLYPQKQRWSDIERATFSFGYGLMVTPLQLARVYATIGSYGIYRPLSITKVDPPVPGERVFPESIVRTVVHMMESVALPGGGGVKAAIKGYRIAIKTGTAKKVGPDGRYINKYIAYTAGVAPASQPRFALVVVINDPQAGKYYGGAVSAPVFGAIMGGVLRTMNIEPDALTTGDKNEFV

Consider `CCN1CCN(C(=O)NC(C(=O)N[C@H]2Cc3cccc(C(=O)O)c3OB2O)c2csc(N)n2)C(=O)C1=O` (stereo partly drawn) [Example 12, (3R)-3-(2-(2-aminothiazol-4-yl)-2-(4-ethyl-2,3-dioxopiperazine-1-carboxamido)acetamido)-2-hydroxy-3,4-dihydro-2H-benzo[e][1,2]oxaborinine-8-carboxylic acid], for which the EC50 in test [1] is less than 30 µM; in test [2], less than 10 µM. In addition, the MIC (commonly the lowest concentration found to suppress growth) in test [3] was less than 64 µg/mL; in test [4], 64 to 128 µg/mL.
